We go through two compounds from patent US20200093814A1, “COMBINATION THERAPY WITH AMIDINE SUBSTITUTED BETA-LACTAM COMPOUNDS AND BETA-LACTAMASE INHIBITORS FOR INFECTIONS WITH ANTIBIOTIC RESISTANT BACTERIAL STRAINS” (AiCuris GmbH & Co. KG, priority 2016, published 2020).

Common to all, as to assay type: cell-based
What all share (settings): BLI where combined at 4 μg/mL

In one assay the test system is K. pneumoniae 68 (SHV-5). The assay can be described thus: MIC determination, broth microdilution (CLSI). The text has this:
(§1) While the compounds of this invention were serially diluted as described above, a constant concentration of the β-lactamase inhibitor of […] was used.
In general terms: Dilution methods test growth across graded concentrations, often in twofold steps.

Assay [1] has as its system E. coli 17 (CTX-M, CMY-2). The experiment in a line: MIC determination, broth microdilution (CLSI).
From the text: as §1

Another assay has as its system K. pneumoniae 79 (CTX-M). The experiment in a line: MIC determination, broth microdilution (CLSI).
From the text: as §1

Assay [2] relates to E. coli J62-TEM-3 transconjugant (TEM-3). The experiment in a line: MIC determination, broth microdilution (CLSI).
From the text: as §1

The subject of the next assay is E. coli 72 (CTX-M). The assay can be described thus: MIC determination, broth microdilution (CLSI).
From the text: as §1

Another assay concerns E. coli 121 (CTX-M). The experiment in a line: MIC determination, broth microdilution (CLSI).
From the text: as §1

The subject of assay [3] is K. pneumoniae NCTC 13440 (VIM-1, SHV-12). The experiment in a line: MIC determination, broth microdilution (CLSI).
From the text: as §1

Another assay has as its system E. coli 10 (TEM-20). The assay can be described thus: MIC determination, broth microdilution (CLSI).
From the text: as §1

A further assay concerns E. coli 128 (SHV-2a). The assay can be described thus: MIC determination, broth microdilution (CLSI).
From the text: as §1

The subject of assay [4] is E. coli DSM 22315 (VEB-1). The assay can be described thus: MIC determination, broth microdilution (CLSI).
From the text: as §1

For assay [5], the system named is E. cloacae 58 (SHV-12, de-repressed AmpC).
For assay [6], the system named is K. pneumoniae NRZ-15601 (OXA-48, SHV-12). The assay can be described thus: MIC determination, broth microdilution (CLSI).
From the text: as §1

Assay [7] concerns K. pneumoniae 16/10 (OXA-48, CTX-M-15). The experiment in a line: MIC determination, broth microdilution (CLSI).
From the text: as §1

Consider aztreonam, for which the MIC with K. pneumoniae 68 (SHV-5) was 128 µg/mL; in [1] it was 128 µg/mL; with K. pneumoniae 79 (CTX-M), 32 µg/mL; in assay [2], 8 µg/mL; in the assay on E. coli 72 (CTX-M), 128 µg/mL; with E. coli 121 (CTX-M), 64 µg/mL. The MIC in assay [3] stood at 128 µg/mL; in the assay with E. coli 10 (TEM-20) it was 64 µg/mL; in the assay on E. coli 128 (SHV-2a), 8 µg/mL; in [4], 64 µg/mL.
With `CC(C)(O/N=C(\C(=O)N[C@@H]1C(=O)N2C(C(=O)[O-])=C(C[n+]3ccccc3)CS[C@H]12)c1csc(N)n1)C(=O)O` [ceftazidime], the minimum inhibitory concentration (MIC) is 128 µg/mL in assay [5]; 64 µg/mL in assay [6]; 64 µg/mL in the assay with K. pneumoniae 68 (SHV-5); 128 µg/mL in assay [1]; 16 µg/mL in the assay on K. pneumoniae 79 (CTX-M); 16 µg/mL in [2]. For the same compound, the MIC in the assay on E. coli 72 (CTX-M) came out at 32 µg/mL; in the assay with E. coli 121 (CTX-M), 32 µg/mL; in the assay on E. coli 10 (TEM-20), 32 µg/mL; in assay [7], 128 µg/mL; with E. coli 128 (SHV-2a) it was 16 µg/mL; in [4], 128 µg/mL.

In general, MIC refers to the least concentration at which growth counts as inhibited.
